Data: PMC8348983 (International Journal of Molecular Sciences, 2021)

Assays:
Cytotoxicity, MTT assay = type: cell-based; settings: human, SH-SY5Y neuroblastoma cells, 24 h incubation
Experimental: The cytotoxicity profile was assessed for compound 6 using the human neuroblastoma SH-SY5Y cell line and MTT assay. At a concentration of 10 µM, compound 6 was completely devoid of cytotoxicity, with viability reaching 95.1 ± 2.6%.
The neuroblastoma cell line SH-SY5Y (Sigma-Aldrich, St. Louis, MO, USA) was used to evaluate cytotoxicity of the tested compounds. […]
The MTT (3-(4,5-dimethylthiazol-2-yl)-2,5-diphenyl-tetraziolium bromide (Sigma–Aldrich) reduction assay was used for measurement of the compounds’ cytotoxicity, according to Mosmann. MTT is a water-soluble tetrazolium salt that is converted to purple formazan by succinate dehydrogenase in mitochondria of viable cells. Cell viability was detected after 24-h incubation with the tested substances. For the assay, SH-SY5Y cells were seeded into 96-well plates in 100 µL volume and at a density of 20 × 10^3. Cells were allowed to attach overnight before the treatment. The stock solutions of tested compounds were prepared in dimethylsulfoxide (DMSO, Sigma-Aldrich), which were serially diluted in DMEM and added to the cells in a 96-well culture plate. […] The optical density of each well was measured using a Spark® multimode microplate reader (Tecan Group Ltd., Männedorf, Switzerland) at 570 nm. The cell viability was expressed as a percentage of the untreated control. […]

MAO-A = molecular target: T1, MAO-A (Homo sapiens, UniProt P21397); experiment: MAO-A inhibition assay; type: biochemical
T1 construct: purchased Merck, Germany
T1 sequence (P21397 1-527): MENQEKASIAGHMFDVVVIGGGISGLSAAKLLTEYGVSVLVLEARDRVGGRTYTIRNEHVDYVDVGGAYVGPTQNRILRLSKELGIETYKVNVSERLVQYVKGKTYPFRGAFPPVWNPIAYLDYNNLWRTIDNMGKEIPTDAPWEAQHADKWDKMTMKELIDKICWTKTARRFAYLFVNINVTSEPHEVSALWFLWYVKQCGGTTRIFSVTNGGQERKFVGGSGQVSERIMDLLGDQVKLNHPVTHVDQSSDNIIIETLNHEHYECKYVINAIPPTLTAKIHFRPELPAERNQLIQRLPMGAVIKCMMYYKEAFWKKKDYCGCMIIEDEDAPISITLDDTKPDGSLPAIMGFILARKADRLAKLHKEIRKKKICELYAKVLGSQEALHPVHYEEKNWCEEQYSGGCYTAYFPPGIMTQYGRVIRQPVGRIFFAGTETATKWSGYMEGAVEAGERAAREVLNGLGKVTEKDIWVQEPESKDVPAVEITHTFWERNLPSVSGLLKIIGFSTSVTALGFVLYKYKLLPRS
Experimental: Since monoamine oxidase (MAO; EC 1.4.3.4) inhibitors are considered as neuroprotective agents, compound 6 was screened at two concentrations (1 and 10 µM) for its inhibition potential against both isoforms of human MAOs. […]; MAO inhibition assay was performed as previously described. Supplementary Materials provides details of this assay. […]
The reaction mixture contains 2.5mg/mL MAO -A or 6.25mg/mLMAO-B enzyme (Merck, Germany) and inhibitor in final concentrations of […] in 50 mM potassiumphosphate buffer with 20% (v/v) glycerol (pH 7.5). […] The sample was then centrifuged (16.500 g) for10 min.The deamination product of kynuramine formed during the enzymatic reaction 4-hydroxyquinoline (4-HQ) was determined by UHPLC-MS on a Zorbax RRHD Eclipse plus C18 column (2.1 mm x 50 mm, […]) (Agilent Technologies, USA), by using a 6470 Series Triple Quadrupole mass spectrometer (Agilent Technologies, USA) as detector with electrospray ionisation – positive ion mode. […]
0.1% formic acid in water; (B) 0.1% formic acid in acetonitrile. IC 50of individual compounds were determined by nonlinear regression usingGraphPad Prism 8.0 (GraphPad Software, USA).

[1] = molecular target: POP (prolyloligopeptidase) (Homo sapiens, UniProt P48147); experiment: POP inhibition assay; type: biochemical; settings: bounds marked f: highest tested concentration due to low solubility in buffer; read-out: IC50, POP ± SEM
Experimental: The previously applied procedure was used. Detailed description of the assay can be found in Supplementary Materials.
POP (EC 3.4.21.26) was dissolved in phosphate-buffered saline (PBS; 0.01 M Na/K phosphate buffer, […]
The assay was performed in standard polystyrene 96-well microplates with a flat and clear bottom.
Stock solutions of tested compounds were prepared in DMSO (10 mM). Dilutions (10−3 to 10−7 M) were prepared from the stock solution with deionized H2O; the control was performed with the same DMSO concentration. POP substrate, (Z)-Gly-Pro-p-nitroanilide, was dissolved in 50% 1,4-dioxane (5 mM). For each reaction, PBS (170 μL), tested compound (5 μL), and POP (5 μL) were incubated for 5 min at 37 °C. Then, substrate (20 μL) was added, and the microplate was incubated for 30 min at 37 °C. The formation of p-nitroanilide, directly proportional to the POP activity, was measured […]
Synergy 2, BioTek Instruments, Winooski, VT). The inhibition potency of tested compounds was calculated by nonlinear regression analysis and was expressed as an IC50 value (concentration of inhibitor which causes 50% POP inhibition). […]

Chain of POP (prolyloligopeptidase) (P48147 whole entry): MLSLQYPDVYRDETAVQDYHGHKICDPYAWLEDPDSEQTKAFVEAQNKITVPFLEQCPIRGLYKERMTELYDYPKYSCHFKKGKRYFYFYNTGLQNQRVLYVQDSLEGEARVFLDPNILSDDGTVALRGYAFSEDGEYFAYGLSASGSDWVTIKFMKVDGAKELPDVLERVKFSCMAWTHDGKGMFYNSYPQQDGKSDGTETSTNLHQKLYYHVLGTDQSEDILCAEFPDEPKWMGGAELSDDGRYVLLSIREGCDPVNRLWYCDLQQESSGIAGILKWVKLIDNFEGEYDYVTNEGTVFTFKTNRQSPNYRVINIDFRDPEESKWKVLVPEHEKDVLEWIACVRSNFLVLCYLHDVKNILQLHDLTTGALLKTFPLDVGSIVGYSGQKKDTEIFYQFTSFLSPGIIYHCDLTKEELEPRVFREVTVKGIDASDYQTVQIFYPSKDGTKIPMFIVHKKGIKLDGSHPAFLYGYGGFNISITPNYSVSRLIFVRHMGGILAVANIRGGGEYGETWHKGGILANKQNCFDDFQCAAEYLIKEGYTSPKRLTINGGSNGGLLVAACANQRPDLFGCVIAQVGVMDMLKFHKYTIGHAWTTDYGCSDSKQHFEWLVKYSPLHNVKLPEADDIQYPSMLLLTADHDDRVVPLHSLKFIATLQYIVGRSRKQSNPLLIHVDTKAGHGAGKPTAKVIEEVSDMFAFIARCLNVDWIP

## C=CCOc1ccc(CCN(CC=C)Cc2ccc(OC)c(OCc3ccccc3)c2)cc1 [Compound 6, N-allyl-N-(3-benzyloxy-4-methoxybenzyl)-2-(4-allyloxyphenyl)ethan-1-amine]
Cytotoxicity, MTT assay
  viability at 24 h, 10 µM: 95.1 ± 2.6%
MAO-A
  IC50: > 10 µM
MAO-A; 1 and 10 µM
  residual activity of MAO-A: higher than 68%
[1]
  IC50: > 79 µM
